Test results as given in ChEMBL document CHEMBL4814014, “Identification of novel androgen receptor degrading agents to treat advanced prostate cancer” (Eur J Med Chem, 2021).

Legend:
DU-145 = assay: Antiproliferative activity against AR-negative human DU145 cells assessed as reduction in cell viability incubated for 3 days by MTT assay; conditions: DU-145, 72 h
CWR22R = assay: Antiproliferative activity against AR-positive human 22RV1 cells assessed as reduction in cell viability incubated for 3 days by MTT assay; conditions: 22Rv1, 72 h
LNCaP = assay: Antiproliferative activity against AR-positive human LNCaP cells assessed as reduction in cell viability incubated for 3 days by MTT assay; conditions: 72 h

IC50 (DU-145) [µM]	IC50 (LNCaP) [µM]	SMILES	IC50 (CWR22R) [µM]
14.7	15.1	C=CC(=O)Nc1ccc(-c2cc(=O)c3c(O)cc(OC)c(OC(C)C)c3o2)cc1	5.8
45.3	17.6	CNC(=O)c1ccc(N2C(=S)N(c3ccc(C#N)c(C(F)(F)F)c3)C(=O)C2(C)C)cc1F [ENZALUTAMIDE]	42.3
